Test results from patent US8053453B2, “Pyrazolone compounds and thrombopoietin receptor activator” (Nissan Chemical Industries, Ltd., priority 2002, dated 2011).
Read-outs that look alike come from different tables or passages of the source.

Molecular target: T1, human TPO receptor (Homo sapiens, UniProt P40238)
T1 construct: expressed in transfected cells
T1 sequence (P40238 26-635): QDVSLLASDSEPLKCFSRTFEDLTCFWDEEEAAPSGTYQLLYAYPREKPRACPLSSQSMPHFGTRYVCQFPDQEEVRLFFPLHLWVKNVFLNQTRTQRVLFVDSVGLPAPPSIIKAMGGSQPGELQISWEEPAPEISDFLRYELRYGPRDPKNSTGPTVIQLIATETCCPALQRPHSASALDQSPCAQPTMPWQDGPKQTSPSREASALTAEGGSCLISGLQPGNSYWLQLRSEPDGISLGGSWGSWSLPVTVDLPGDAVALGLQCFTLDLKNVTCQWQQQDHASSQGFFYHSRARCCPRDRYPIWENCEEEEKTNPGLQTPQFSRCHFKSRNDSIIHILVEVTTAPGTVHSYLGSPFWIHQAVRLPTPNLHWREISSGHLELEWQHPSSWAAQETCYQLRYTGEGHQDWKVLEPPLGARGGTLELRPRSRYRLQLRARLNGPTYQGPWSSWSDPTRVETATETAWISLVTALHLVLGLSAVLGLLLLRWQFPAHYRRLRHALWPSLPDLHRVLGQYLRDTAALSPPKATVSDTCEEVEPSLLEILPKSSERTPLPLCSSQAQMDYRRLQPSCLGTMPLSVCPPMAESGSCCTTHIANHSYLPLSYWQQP
Test: Proliferation of TPO-dependent cell line UT7/EPO-mpl, MTT method (Assay Examples 1, 3, 4)
Assay type: cell-based
Conditions: UT7/EPO-mpl cells; for Emax / Efficacy (%) (maximal growth rate): value in the presence of 10 ng/ml TPO taken as 100% standard, method of Assay Example 1; for Emax: read-out: Efficacy (%) (maximal growth rate); for EC50: concentration giving 50% of the maximum cell growth observed with the same compound
Method: The reactivity of Synthetic Example 56, the compound of the present invention, with thrombopoietin (TPO) receptor was assayed using a human leukemic cell line, UT7/EPO-mpl.
UT7/EPO-mpl is a stable transformed cell line obtained by introducing into human leukemic cell line UT7/EPO a vector that induces expression of human TPO receptor (c-mp1) under control of a cytomegaloviral promoter by the method of Takatoku et al. (J. Biol. Chem., 272:7259-7263 (1997)). […] These two cell lines were subcultured in Iscove's modified Dulbecco's medium (IMDM; GIBCO) containing 10% fetal bovine serum (FBS; TRACE SCIENTIFIC) using a CO2 incubator (5% CO2, 37° C.).
The subcultured cells described above were washed twice with phosphate buffered saline (PBS) and suspended in IMDM containing 10% FBS at a cell density of 6×10^4 cells/ml. The cell suspension was transferred to a 96-well tissue culture plate (CORNING) in 100-μl aliquots. Then either TPO (PeproTech EC) or Synthetic Example 56 dissolved in dimethylsulfoxide (DMSO) was diluted 83-fold with IMDM containing 10% FBS and added to the aforementioned cell suspension in 20-μl aliquots. The suspension was incubated in a CO2 incubator (5% CO2, 37° C.) for 4 days. Cell proliferation was assayed according to the method of Mosmann et al. (J. Immunol. Methods, 65:55-63 (1983)). A 10-μl aliquot of 5 mg/ml MTT reagent (SIGMA) was added to each well of the tissue culture plate and the plate was incubated at 37° C. for 4 h. The formazan pigment generated was dissolved by adding 150 μl per well of 0.1 M HCl/isopropanol solution and the absorbance of the resulting pigment solution was measured at 550 nm with a 96-well microplate reader (BIO-RAD, M450).
The following Synthetic Examples were tested according to the method of Assay Example 1 to determine the maximal growth rate (efficacy), expressed by taking the value with human leukemic cell line UT7/EPO-mpl observed in the presence of 10 ng/ml TPO as 100% standard, and the concentration of each compound that yields a growth rate corresponding to 50% of the maximum cell growth observed with the same compound (EC50).
Synthetic Example 56, the compound of the present invention, and four compounds (Reference Synthetic Examples 1 to 4) described in a publication of international patent application (Publication No. WO01/34585, applied by SmithKline Beecham Corp.) were tested according to the method of Assay Example 1.

[1] = read-out: EC50 (ng/ml) (converted)

| SMILES | Emax [%] | EC50 [1] [nM] | EC50 [µg/mL] | Efficacy (%) (maximal growth rate) |
| --- | --- | --- | --- | --- |
| Cc1ccc(-n2nc(C)c(C=NN3C(=O)C(=Cc4ccc(C(=O)O)cc4)SC3=S)c2O)cc1C [Reference Synthetic Example 1, 5-(4-carboxybenzylidene)-3-[(1-{3,4-dimethylphenyl}-5-hydroxy-3-methyl-1H-pyrazol-4-ylmethylene)amino]-2-thioxothiazolidin-4-one, reference compound] | 7 | – | – | – |
| Cc1ccc(-n2nc(C)c(C=NN3C(=O)C(=Cc4cccc(C(=O)O)c4)SC3=S)c2O)cc1C [Reference Synthetic Example 2, 5-(3-carboxybenzylidene)-3-[(1-{3,4-dimethylphenyl}-5-hydroxy-3-methyl-1H-pyrazol-4-ylmethylene)amino]-2-thioxothiazolidin-4-one, reference compound] | 12 | – | – | – |
| Cc1ccc(-n2nc(C)c(C=NN3CC(=O)N(c4cccc(C(=O)O)c4)C3=S)c2O)cc1C [Reference Synthetic Example 3, 3-(3-carboxyphenyl)-1-[(1-{3,4-dimethylphenyl}-5-hydroxy-3-methyl-1H-pyrazol-4-ylmethylene)amino]-2-thioxoimidazolidin-4-one, reference compound] | 7 | – | – | – |
| Cc1ccc(-n2nc(C)c(C=NN3CC(=O)N(c4ccc(C(=O)O)cc4)C3=S)c2O)cc1C [Reference Synthetic Example 4, 3-(4-carboxyphenyl)-1-[(1-{3,4-dimethylphenyl}-5-hydroxy-3-methyl-1H-pyrazol-4-ylmethylene)amino]-2-thioxoimidazolidin-4-one, reference compound] | 67 | 3020 | – | – |
| CC1=NN(c2ccc(I)cc2)C(=O)C1=C(C)NNC(=O)c1ccc(O)cc1O [compound 1] | – | – | 0.0074 | 74 |
| CC1=NN(c2ccc(C(C)(C)C)cc2)C(=O)C1=C(C)NNC(=O)c1cc(O)cc(O)c1 [compound 2] | – | – | 0.0063 | 89 |
| CC1=NN(c2ccc(C)c(C)c2)C(=O)C1=C(C)NNC(=O)c1cc(O)cc(O)c1 [compound 3] | – | – | 0.015 | 82 |
| COC(=O)c1ccc(C(=O)NNC(C)=C2C(=O)N(c3ccc(C(C)(C)C)cc3)N=C2C)cc1 [compound 4] | – | – | 0.015 | 53 |
| CC1=NN(c2ccc(C(C)(C)C)cc2)C(=O)C1=C(C)NNC(=O)c1ccc(C(=O)O)cc1 [compound 5] | – | – | 0.0034 | 86 |
| COC(=O)c1ccc(C(=O)NNC(C)=C2C(=O)N(c3ccc(C)c(C)c3)N=C2C)cc1 [compound 6] | 64 | 17.6 | – | – |
| CC1=NN(c2ccc(C)c(C)c2)C(=O)C1=C(C)NNC(=O)c1ccc(C(=O)O)cc1 [compound 7] | – | – | 0.0022 | 99 |
| COC(=O)c1ccc(C(=O)NNC(C)=C2C(=O)N(c3cccc(C(F)(F)F)c3)N=C2C)cc1 [compound 8] | 52 | 67.3 | – | – |
| CC1=NN(c2cccc(C(F)(F)F)c2)C(=O)C1=C(C)NNC(=O)c1ccc(C(=O)O)cc1 [compound 9] | – | – | 0.0051 | 90 |
| COC(=O)c1ccc(C(=O)NNC(C)=C2C(=O)N(c3ccc(C(F)(F)F)cc3)N=C2C)cc1 [compound 10] | 78 | 43.4 | – | – |
| CC1=NN(c2ccc(C(F)(F)F)cc2)C(=O)C1=C(C)NNC(=O)c1ccc(C(=O)O)cc1 [compound 11] | – | – | 0.002 | 83 |
| CC1=NN(c2ccc(C(C)(C)C)cc2)C(=O)C1=C(C)NNC(=O)c1cccc(C(=O)O)c1 [compound 12] | – | – | 0.076 | 100 |
| CC1=NN(c2ccc(C)c(C)c2)C(=O)C1=C(C)NNC(=O)c1cccc(C(=O)O)c1 [compound 13] | – | – | 0.28 | 99 |
| CC1=NN(c2ccccc2)C(=O)C1=C(C)NNC(=O)c1cccc([N+](=O)[O-])c1 [compound 14] | – | – | 0.072 | 91 |

| SMILES | Emax [%] | EC50 [1] [nM] | EC50 [µg/mL] | Efficacy (%) (maximal growth rate) |
| --- | --- | --- | --- | --- |
| CC1=NN(c2ccc(C(C)(C)C)cc2)C(=O)C1=C(C)NNC(=O)c1cccc([N+](=O)[O-])c1 [compound 15] | – | – | 0.023 | 109 |
| CC1=NN(c2ccccc2)C(=O)C1=C(C)NNC(=O)c1ccccc1O [compound 16] | – | – | 0.061 | 58 |
| CC1=NN(c2ccccc2)C(=O)C1=C(C)NNC(=O)c1ccc(O)cc1 [compound 17] | – | – | 0.079 | 73 |
| CC1=NN(c2ccccc2)C(=O)C1=C(C)NNC(=O)c1cc2ccccc2cc1O [compound 18] | – | – | 0.055 | 94 |
| CC1=NN(c2ccccc2)C(=O)C1=C(C)NNC(=O)c1ccc(O)cc1O [compound 19] | – | – | 0.014 | 100 |
| CC1=NN(c2ccccc2)C(=O)C1=C(C)NNC(=O)c1ccc(O)c(O)c1 [compound 20] | – | – | 0.038 | 91 |
| CC1=NN(c2ccccc2)C(=O)C1=C(C)NNC(=O)c1ccccc1[N+](=O)[O-] [compound 21] | – | – | 0.29 | 39 |
| CC1=NN(c2ccccc2)C(=O)C1=C(C)NNC(=O)c1ccc([N+](=O)[O-])cc1 [compound 22] | – | – | 0.19 | 50 |
| CC1=NN(c2ccc(C(C)(C)C)cc2)C(=O)C1=C(C)NNC(=O)c1ccccc1O [compound 23] | – | – | 0.028 | 129 |
| CC1=NN(c2ccc(C(C)(C)C)cc2)C(=O)C1=C(C)NNC(=O)c1ccc(O)cc1 [compound 24] | – | – | 0.0072 | 89 |
| CC1=NN(c2ccc(C(C)(C)C)cc2)C(=O)C1=C(C)NNC(=O)c1cc2ccccc2cc1O [compound 25] | – | – | 0.2 | 54 |
| CC1=NN(c2ccc(C(C)(C)C)cc2)C(=O)C1=C(C)NNC(=O)c1ccc(O)cc1O [compound 26] | – | – | 0.0029 | 78 |
| CC1=NN(c2ccc(C(C)(C)C)cc2)C(=O)C1=C(C)NNC(=O)c1ccc(O)c(O)c1 [compound 27] | – | – | 0.0056 | 75 |
| CC1=NN(c2ccc(C(C)(C)C)cc2)C(=O)C1=C(C)NNC(=O)c1ccccc1[N+](=O)[O-] [compound 28] | – | – | 0.037 | 99 |
| CC1=NN(c2ccc(C(C)(C)C)cc2)C(=O)C1=C(C)NNC(=O)c1ccc([N+](=O)[O-])cc1 [compound 29] | – | – | 0.23 | 67 |
| CC1=NN(c2ccc(C(F)(F)F)cc2)C(=O)C1=C(C)NNC(=O)c1ccccc1O [compound 30] | – | – | 0.019 | 106 |
| CC1=NN(c2ccc(C(F)(F)F)cc2)C(=O)C1=C(C)NNC(=O)c1ccc(O)cc1 [compound 31] | – | – | 0.0052 | 63 |
| CC1=NN(c2ccc(C(F)(F)F)cc2)C(=O)C1=C(C)NNC(=O)c1cc2ccccc2cc1O [compound 32] | – | – | 0.037 | 90 |
